Measured values from PubChem BioAssay AID1845209 (Molecular Pharmacology Branch, DTP, NCI, 2023).

System: NCI-H211 tumor spheroids, viability percent test/control
Assay: Anticancer human tumor NCI-H211 cell line growth inhibition;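 also: spheroids exposed to agents for seven days before readout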
Conditions: spheroids with HUVEC and MSC; for IC50: curve of first compound; for viability, T/C: stronger effect = lower value
Outline: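 Single agents and combinations were tested on spheroids built from tumor cells plus HUVEC and hMSC, at half-log dilutions starting at or near clinical Cmax, else 10 microM; final DMSO 0.25% (v/v).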

[1] = second compound 1 µM, first compound 0.0316 µM
[2] = second compound 1 µM, first compound 0.1 µM
[3] = second compound 1 µM, first compound 0.316 µM
[4] = second compound 1 µM, first compound 1 µM
[5] = second compound 1 µM, first compound 3.16 µM
[6] = second compound 1 µM, first compound 10 µM
[7] = second compound 3.16 µM, first compound 0.0316 µM
[8] = second compound 3.16 µM, first compound 0.1 µM
[9] = second compound 3.16 µM, first compound 0.316 µM
[10] = second compound 3.16 µM, first compound 1 µM
[11] = second compound 3.16 µM, first compound 3.16 µM
[12] = second compound 3.16 µM, first compound 10 µM
[13] = second compound 10 µM, first compound 0.0316 µM
[14] = second compound 10 µM, first compound 0.1 µM
[15] = second compound 10 µM, first compound 0.316 µM
[16] = second compound 10 µM, first compound 1 µM
[17] = second compound 10 µM, first compound 3.16 µM
[18] = second compound 10 µM, first compound 10 µM
[19] = second compound 31.6 µM, first compound 0.0316 µM
[20] = second compound 31.6 µM, first compound 0.1 µM
[21] = second compound 31.6 µM, first compound 0.316 µM
[22] = second compound 31.6 µM, first compound 1 µM
[23] = second compound 31.6 µM, first compound 3.16 µM
[24] = second compound 31.6 µM, first compound 10 µM
[25] = second compound 100 µM, first compound 0.0316 µM
[26] = second compound 100 µM, first compound 0.1 µM
[27] = second compound 100 µM, first compound 0.316 µM
[28] = second compound 100 µM, first compound 1 µM
[29] = second compound 100 µM, first compound 3.16 µM
[30] = second compound 100 µM, first compound 10 µM

Row | SMILES | IC50 (second compound 1 µM) [nM] | IC50 (second compound 3.16 µM) [nM] | IC50 (second compound 10 µM) [nM] | IC50 (second compound 31.6 µM) [nM] | IC50 (second compound 100 µM) [nM] | viability, T/C [1] [%] | viability, T/C [2] [%] | viability, T/C [3] [%] | viability, T/C [4] [%] | viability, T/C [5] [%] | viability, T/C [6] [%] | viability, T/C [7] [%] | viability, T/C [8] [%] | viability, T/C [9] [%] | viability, T/C [10] [%] | viability, T/C [11] [%] | viability, T/C [12] [%] | viability, T/C [13] [%] | viability, T/C [14] [%] | viability, T/C [15] [%] | also measured
1 | CC1COCCN1c1cc(-c2ccnn2C)c2ccnc(-c3ccn[nH]3)c2n1 (stereo not given) + Cn1nnc2c(C(N)=O)ncn2c1=O | < 31.6 | < 31.6 | < 31.6 | < 31.6 | < 31.6 | 11.4 | 1.45 | 0.83 | 0.74 | 0.72 | 1.43 | 9.67 | 1.34 | 0.86 | 0.68 | 0.72 | 1.44 | 6.59 | 0.88 | 0.79 | viability, T/C [16]: 0.62%; viability, T/C [17]: 0.67%; viability, T/C [18]: 1.16%; viability, T/C [19]: 1.39%; viability, T/C [20]: 1.09%; viability, T/C [21]: 0.74%; viability, T/C [22]: 0.59%; viability, T/C [23]: 0.66%; viability, T/C [24]: 1.11%; viability, T/C [25]: 1.19%; viability, T/C [26]: 1.1%; viability, T/C [27]: 0.95%; viability, T/C [28]: 0.67%; viability, T/C [29]: 0.65%; viability, T/C [30]: 1.12%
2 | COc1cc(C)[nH]c(=O)c1CN1CCc2c(Cl)cc(C(OC)C3COC3)c(Cl)c2C1=O (stereo not given) + Cn1nnc2c(C(N)=O)ncn2c1=O | > 10000 | > 10000 | > 10000 | 1330 | < 31.6 | 92.7 | 90.4 | 90.6 | 82.7 | 81.3 | 72.8 | 92.6 | 99.3 | 90 | 82.3 | 70.2 | 81.5 | 99.8 | 98.7 | 86.6 | viability, T/C [16]: 86.5%; viability, T/C [17]: 70.2%; viability, T/C [18]: 56.1%; viability, T/C [19]: 56.4%; viability, T/C [20]: 54.6%; viability, T/C [21]: 59.6%; viability, T/C [22]: 56.3%; viability, T/C [23]: 30.8%; viability, T/C [24]: 30.8%; viability, T/C [25]: 31.5%; viability, T/C [26]: 33.4%; viability, T/C [27]: 19.6%; viability, T/C [28]: 13.8%; viability, T/C [29]: 12.6%; viability, T/C [30]: 12%
3 | COc1ccc([C@@H](O)c2cc(-c3ncnc4cc(N5CCOCC5)ccc34)c(F)cc2Cl)nn1 + Cn1nnc2c(C(N)=O)ncn2c1=O | 6280 | 5810 | 3890 | < 31.6 | < 31.6 | 102 | 102 | 90.3 | 74.5 | 85.3 | 31.5 | 88.9 | 100 | 105 | 69.4 | 73.2 | 33.3 | 99 | 88.6 | 84 | viability, T/C [16]: 71.9%; viability, T/C [17]: 60.7%; viability, T/C [18]: 21.7%; viability, T/C [19]: 41.1%; viability, T/C [20]: 38.5%; viability, T/C [21]: 35.1%; viability, T/C [22]: 34.6%; viability, T/C [23]: 21.1%; viability, T/C [24]: 7.82%; viability, T/C [25]: 21.6%; viability, T/C [26]: 19.3%; viability, T/C [27]: 15.9%; viability, T/C [28]: 8.08%; viability, T/C [29]: 5.69%; viability, T/C [30]: 2.16%
